Drawing on patent US20240182465A1 (GENFLEET THERAPEUTICS (SHANGHAI) INC., priority 2021, published 2024), this text covers IC50 for 12 compounds.

For assay [1], the target named is HPK1 (Homo sapiens, UniProt Q92918). Kind of assay: SLP76 phosphorylation assay (intracellular HPK1 inhibitory activity, p-SLP76 Ser376 sandwich ELISA). The conditions noted are these: p-SLP76 IC50(nM), Jurkat, Clone E6-1 cells; 1 h compound pre-incubation, anti-CD3 beads stimulation 20 min; SLP76 phosphorylation at S376. A general note: ELISA stands for enzyme-linked immunosorbent assay.
Target sequence in this assay (Q92918 whole entry): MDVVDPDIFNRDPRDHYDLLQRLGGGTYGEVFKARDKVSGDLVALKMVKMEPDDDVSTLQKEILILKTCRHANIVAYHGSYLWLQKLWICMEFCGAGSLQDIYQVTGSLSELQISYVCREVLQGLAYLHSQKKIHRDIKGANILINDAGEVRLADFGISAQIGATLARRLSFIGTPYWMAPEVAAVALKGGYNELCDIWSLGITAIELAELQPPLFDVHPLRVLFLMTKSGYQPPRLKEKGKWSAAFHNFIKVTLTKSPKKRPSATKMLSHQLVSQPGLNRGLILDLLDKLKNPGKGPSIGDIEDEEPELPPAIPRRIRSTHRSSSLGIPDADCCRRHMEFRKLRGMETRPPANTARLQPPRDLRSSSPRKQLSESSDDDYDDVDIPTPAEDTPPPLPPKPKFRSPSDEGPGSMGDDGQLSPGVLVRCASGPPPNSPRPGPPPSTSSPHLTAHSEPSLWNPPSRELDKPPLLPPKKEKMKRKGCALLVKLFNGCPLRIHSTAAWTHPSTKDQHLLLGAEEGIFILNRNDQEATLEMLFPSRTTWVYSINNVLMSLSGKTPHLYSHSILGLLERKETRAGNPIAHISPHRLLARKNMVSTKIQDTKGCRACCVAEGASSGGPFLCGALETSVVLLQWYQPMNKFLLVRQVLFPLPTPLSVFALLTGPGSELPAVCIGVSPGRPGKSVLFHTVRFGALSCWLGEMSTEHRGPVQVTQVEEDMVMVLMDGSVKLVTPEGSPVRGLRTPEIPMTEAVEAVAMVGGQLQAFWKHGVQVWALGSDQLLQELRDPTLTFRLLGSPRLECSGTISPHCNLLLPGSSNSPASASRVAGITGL

Assay [2] concerns the target T1, HPK1 (Homo sapiens, UniProt Q92918).
T1 sequence (Q92918 1-346 limits assumed): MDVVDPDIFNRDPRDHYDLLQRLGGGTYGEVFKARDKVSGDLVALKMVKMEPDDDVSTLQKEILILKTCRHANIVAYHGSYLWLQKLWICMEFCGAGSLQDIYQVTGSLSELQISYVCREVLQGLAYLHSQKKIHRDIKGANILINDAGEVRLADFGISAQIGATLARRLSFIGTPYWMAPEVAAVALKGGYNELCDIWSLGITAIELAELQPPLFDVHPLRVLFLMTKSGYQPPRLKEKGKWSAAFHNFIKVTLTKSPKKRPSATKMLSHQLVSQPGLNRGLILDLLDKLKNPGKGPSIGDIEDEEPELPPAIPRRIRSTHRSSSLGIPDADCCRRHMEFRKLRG
Kind of assay: HPK1 kinase activity assay (ADP-Glo). The note with it: HPK1 Kinase activity IC50 (nM), 1 nM HPK1, 10 μM ATP, 0.1 μg/μL MBP. In general terms: ADP-Glo turns the ADP formed in a reaction into a luminescent signal.

Where a name gives a salt, the structure may show the parent alone.

What is called IC50 is the concentration needed to halve the response being measured. Low values mean higher potency, high ones lower potency. Regarding `Cc1ncc(C(=O)N2CCc3cc(-c4cnc5[nH]cc(C)c5c4)cc([C@@H]4CCCN4)c3C2)c(C(F)(F)F)n1` [Compound Z349, (S)-(6-(3-methyl-1H-pyrrolo[2,3-b]pyridin-5-yl)-8-(pyrrolidin-2-yl)-3,4-dihydroisoquinolin-2(1H)-yl) (2-methyl-4-(trifluoromethyl)pyrimidin-5-yl)methanone], the concentration for half-maximal inhibition (IC50) worked out at 240 nM against HPK1 [1] and 0.47 nM on HPK1 [2].
For `Cc1c[nH]c2ncc(-c3cc4c(c(CN(C)C)c3)COCC4)cc12` [Compound Z103, N,N-dimethyl-1-(6-(3-methyl-1H-pyrrolo[2,3-b]pyridin-5-yl)isochroman-8-yl)methanamine], the IC50 at HPK1 [1] turned out to be 545 nM; against HPK1 [2] it was 2.65 nM.
The matching figures for `c1cn2ccc(-c3c[nH]c4ncc(-c5cc6c(c([C@@H]7CCCN7)c5)COCC6)cc34)cc2n1` [Compound Z323]: 204 nM and 0.49 nM.
Taken in the same sequence, the figures for `Cc1c[nH]c2ncc(-c3cc4c(c([C@@H]5CCCN5)c3)CN(C(=O)N3CC5CCC(C3)O5)CC4)cc12` [Compound Z389, (8-oxa-3-azabicyclo[3.2.1]octan-3-yl)(6-(3-methyl-1H-pyrrolo[2,3-b]pyridin-5-yl)-8-((S)-pyrrolidin-2-yl)-3,4-dihydroisoquinolin-2(1H)-yl)methanone] were 47.1 nM and 0.21 nM.
`Cc1c[nH]c2ncc(-c3cc([C@H]4CCCN4)c4cnccc4c3)cc12` (single isomer, unassigned) [Compound Z3-2]: the 50% inhibitory concentration (IC50) on HPK1 [1] worked out at 604 nM; at HPK1 [2], 3.37 nM.
Take `COCC(=O)N1Cc2cc(-c3cnc4[nH]cc(C)c4c3)cc([C@@H]3CCCN3)c2C1` [Compound Z261, (S)-2-methoxy-1-(6-(3-methyl-1H-pyrrolo[2,3-b]pyridin-5-yl)-4-(pyrrolidin-2-yl)isoindolin-2-yl)ethan-1-one hydrochloride]: the results for the IC50 on HPK1 [1] and at HPK1 [2] were 842 nM and 2.63 nM, respectively.
As for `CC(=O)N1CCc2cc(-c3cnc4[nH]cc(C)c4c3)cc(C3COCCN3)c2C1` (stereo not drawn) [Compound Z119], the half-maximal inhibitory concentration (IC50) came to 358 nM on HPK1 [1] and 1.54 nM against HPK1 [2].
Consider `CCN1Cc2cc(-c3cnc4[nH]cc(C)c4c3)cc([C@@H]3CCCN3)c2CC1=O` [Compound Z292, (S)-2-ethyl-7-(3-methyl-1H-pyrrolo[2,3-b]pyridin-5-yl)-5-(pyrrolidin-2-yl)-1,4-dihydroisoquinolin-3(2H)-one], for which the concentration for half-maximal inhibition (IC50) against HPK1 [1] came out at 272 nM; against HPK1 [2], 0.97 nM.
The matching figures for `Cc1c[nH]c2ncc(-c3cc4c(c([C@@H]5CCCN5)c3)CN(c3ccncc3)CC4)cc12` [Compound Z291, (S)-6-(3-methyl-1H-pyrrolo[2,3-b]pyridin-5-yl)-2-(pyridin-4-yl)-8-(pyrrolidin-2-yl)-1,2,3,4-tetrahydroisoquinoline]: 162 nM and 0.6 nM.
With `Cc1c[nH]c2ncc(-c3cc4c(c(C5CCN5)c3)COCC4)cc12` (stereo not drawn) [Compound Z232, 5-(8-(azetidin-2-yl)isochroman-6-yl)-3-methyl-1H-pyrrolo[2,3-b]pyridine], the IC50 against HPK1 [1] is 1660 nM; at HPK1 [2], 20.5 nM.
Taken in the same sequence, the figures for `COC(=O)N1CCc2c(cc(-c3cnc4[nH]cc(C)c4c3)cc2[C@@H]2CCCN2)C1` [Compound Z305, methyl (S)-7-(3-methyl-1H-pyrrolo[2,3-b]pyridin-5-yl)-5-(pyrrolidin-2-yl)-3,4-dihydroisoquinoline-2(1H)-carboxylate] were 297 nM and 0.84 nM.
The matching figures for `COc1cc(C(=O)N2CCc3cc(-c4cnc5[nH]cc(C)c5c4)cc([C@@H]4CCCN4)c3C2)ccn1` [Compound Z215, (S)-(6-(3-methyl-1H-pyrrolo[2,3-b]pyridin-5-yl)-8-(pyrrolidin-2-yl)-3,4-dihydroisoquinolin-2(1H)-yl) (2-methoxypyridin-4-yl)methanone]: 444 nM and 0.51 nM.
